Source: article PMC9138090, “Study on the Neuroprotective, Radical-Scavenging and MAO-B Inhibiting Properties of New Benzimidazole Arylhydrazones as Potential Multi-Target Drugs for the Treatment of Parkinson’s Disease” (Antioxidants, 2022)
Entries after “also recorded” stand apart in the source; their conditions may differ.

Assays:
SH-SY5Y cells = assay: H2O2-induced oxidative stress model in SH-SY5Y cells; assay type: cell-based, human; details: for cell viability protection vs. H2O2-treatment: 50 µM, 90 min pre-incubation, H2O2 1 mM 15 min; for protective effect in H2O2-induced oxidative stress model (in words): 1, 10, 50 µM
Protocol: SH-SY5Y cells were seeded in 96-well plates at a density of 3.5 × 10^4/well and allowed to attach at the wells’ bottom overnight. […] Afterwards, the SH-SY5Y cells were washed with phosphate-buffered saline (PBS) to remove the extracellular amount of the test compounds. […] Then, the contents of all wells were changed with culture medium. After 24 h, the amount of attached viable cells was evaluated by MTT assay. […] Rasagiline and melatonin (Sigma-Aldrich Chemie GmbH) were used as reference compounds because of their well-established neuroprotective activity. […] The toxic mechanisms of hydrogen peroxide include the generation of reactive hydroxyl radicals and formation of products which could damage cellular lipids, proteins and DNA. […] For comparison, the effects of two compounds with well established antioxidant activity—rasagiline and melatonin—were also evaluated.

[1] = Fe(II)-induced degradation of 2-deoxyribose (TBA-RS); details: 80 µmol/L, 2-deoxyribose 0.5 mmol/L
Protocol: (§1) The classical method of determining the TBA-reactive substances at 532 nm as described by Asakawa and Matsushita has been used. Two groups of measurement compositions named controls and samples were prepared in phosphate buffer (K2HPO4/KH2PO4, pH 7.4) for each of the used substrates. Both of them contained equivalent concentrations of lecithin (1 mg/mL) or 2-deoxyribose (0.5 mmol/L) and FeCl2 (0.1 mmol/L). In the controls, the tested hydrazones have been omitted and in the samples the effect of the newly designed compounds at the concentrations indicated below the figures has been determined. The obtained samples were incubated at 37 °C for 30 min. The reaction was stopped, and after adding 0.5 mL 2.8% trichloroacetic acid and 0.5 mL of thiobarbituric acid, the samples were heated in boiling water for 20 min. The lecithin containing samples were centrifuged at 3000 rpm for 20 min and the supernatant was aspired out. The results have been presented as a percentage of the control sample, treated only with ferrous iron where we expected maximum oxidative damage under the described conditions.

rat brain synaptosomes = assay: Synaptosomal viability (MTT), toxicity evaluation; assay type: cell-based; details: concentrations < 250 µM (1 to 250 µM tested)
Protocol: Synaptosomes were prepared from brains of adult male Wistar rats. The brains were homogenized in 10 volume of cold buffer 1, containing 5 mM HEPES and 0.32 M sucrose (pH = 7.4). The brain homogenate was centrifuged twice at 1000× g for 5 min at 4 °C. The supernatant was collected and centrifuged 3 times at 10,000× g for 20 min at 4 °C. The pellet was re-suspended in ice-cold buffer 1. The synaptosomes were isolated by using Percoll reagent to prepare the gradient. Synaptosomes were re-suspended and incubated in buffer 2, containing 290 mM NaCl, 0.95 mM MgCl2 × 6H2O, 10 mM KCl, 2.4 mM CaCl2 × H2O, 2.1 mM NaH2PO4, 44 mM HEPES, and 13 mM D-glucose. Incubations were performed in a 5% CO2 + 95% O2 atmosphere. The content of synaptosomal protein was determined according to the method of Lowry et al. using bovine serum albumin as a standard.
Synaptosomal viability was measured by (3-(4,5)-dimethylthiazol-2-yl)-2,5-diphenyl tetrazolium bromide)-test, described by Mungarro-Menchaca et al. The synaptosomes were incubated with the compounds and then treated with (3-(4,5)-dimethylthiazol-2-yl)-2,5-diphenyl tetrazolium bromide) solution (0.5 mg/mL) for 1 h at 37 °C. After incubation they were centrifuged at 15,000× g for 1 min. The formed formazan crystals were dissolved in DMSO (Dimethyl sulfoxide). The extinction was measured spectrophotometrically at λ = 580 nm.
The low toxicity and substantial neuroprotective properties shown by some of the potential drug candidates in human neuroblastoma SH-SY5Y cells directed the experimental work to be elaborated on a different cellular in vitro model using freshly isolated rat brain synaptosomes for the evaluation of the protective effects and toxicity of selected promising compounds [56]. The rat brain synaptosomes represent a terminal part of the axons and contain synaptic vesicles, mitochondria, lysosomes, parts of the cell membrane, neurotransmitters, which diffuse across the synaptic cleft. Besides the presynaptic membrane, a part of postsynaptic membrane with the postsynaptic density is often attached to the nerve ending. In their experiments, Student and Edwards examined the subcellular localization of the A and B forms of MAO in rat brain. […] The authors conclude from the data that MAO-B activity is, indeed, associated with synaptosomes and may be non-uniformly located among different populations of synaptic endings. The functional-metabolic status of the synaptosomes was evaluated by measuring the synaptosomal viability (MTT assay) and the levels of reduced gluthathione (GSH) (Figure 2). […] At the highest used concentration (250 µM) a relative decrease in the synaptosomal viability and the levels of reduced glutathione was observed.

[2] = Fe(II)-induced oxidative damage of lecithin (TBA-RS); details: 90 µmol/L
Protocol: as §1

[3] = Superoxide scavenging, non-enzymatic KO2/NBT assay; details: 100 µM; text says enzymatic assay
Protocol: Superoxide radicals scavenging activity (non-enzymatic assay): 1 mL PBS, pH 7.4 contains 0.04 mmol/L NBT and the tested hydrazone in the concentrations indicated on the figures. No drug was added to the control samples. One minute after the addition of 20 μL of KO2 dissolved in DMSO, the absorbance at 560 nm was measured.
The results from both assays have been presented as a percentage of the control sample.
The potency of the compounds selected as the most promising from the cell model systems and hMAOB inhibitory studies was estimated against enzymatically (xanthine/XO system) and non-enzymatically (KO2/NBT) produced superoxide radicals (Figure 7). In the xanthine-xanthine oxidase system the generation of O2^−^● is a result of an enzymatic reaction. The molecular mechanism of action of the XO enzyme is associated with catalysation of the reaction of oxidation of hypoxanthine and xanthine and generation of uric acid. During the process of reoxidation of the enzyme, the molecular oxygen acts as an electron acceptor and the formation of physiologically important ROS, such as the superoxide radical (O2^−^●) and hydrogen peroxide (H2O2), has been observed. In the potassium superoxide-containing systems, superoxide radical generation is due to the direct addition of the KO2 to the water sample solution. […]

With `O=C(CCn1c(=S)n(CCC(=O)NN=Cc2cccc(O)c2O)c2ccccc21)NN=Cc1cccc(O)c1O` [3h, 3,3′-(2-Thioxo-1H-benzo[d]imidazole-1,3(2H)-diyl)bis(N′-(2,3-dihydroxybenzylidene)propanehydrazide)] the “cell viability protection vs. H2O2-treatment” value (SH-SY5Y cells) was 79%, the “protective effect in H2O2-induced oxidative stress model (in words)” value (SH-SY5Y cells) was “even more pronounced than those of melatonin and rasagiline” and the “antioxidant effect on Fe(II) induced deoxyribose degradation (in words)” value [1] was “stronger than the reference melatonin and similar to Trolox; also recorded: better protection effect than the reference melatonin, and a similar effect to the antioxidant Trolox”. For the same compound, the “effect on rat brain synaptosomes viability” value (rat brain synaptosomes) was “did not significantly reduce” and the “sample/control absorbance ratio (% of the control), lecithin peroxidation” value ([2]; lecithin 1 mg/mL, FeCl2 0.1 mmol/L) was “around 40%”.
With `O=C(CCn1c(=S)n(CCC(=O)NN=Cc2ccc(O)cc2O)c2ccccc21)NN=Cc1ccc(O)cc1O` [3i, 3,3′-(2-Thioxo-1H-benzo[d]imidazole-1,3(2H)-diyl)bis(N′-(2,4-dihydroxybenzylidene)propanehydrazide)] the “increase of absorbance compared to the controls” value [3] was 2.5 times, the “cell viability protection vs. H2O2-treatment” value (SH-SY5Y cells) was 80% and the “protective effect in H2O2-induced oxidative stress model (in words)” value (SH-SY5Y cells) was “even more pronounced than those of melatonin and rasagiline”. For the same compound, the “effect on rat brain synaptosomes viability” value (rat brain synaptosomes) was “did not significantly reduce” and the “lecithin peroxidation effect compared with 3a (in words)” value [2] was “statistically identical effect to 3a”.
In the case of `O=C(CCn1c(=S)n(CCC(=O)NN=Cc2ccccc2O)c2ccccc21)NN=Cc1ccccc1O` [3e, 3,3′-(2-Thioxo-1H-benzo[d]imidazole-1,3(2H)-diyl)bis(N′-(2-hydroxybenzylidene)propanehydrazide)], the “increase of absorbance compared to the controls” value [3] is reported as 1.5 times and the “effect on rat brain synaptosomes viability” value (rat brain synaptosomes) is reported as “did not significantly reduce”.
For `COc1ccc(C=NNC(=O)CCn2c(=S)n(CCC(=O)NN=Cc3ccc(OC)cc3O)c3ccccc32)c(O)c1` [3m, 3,3′-(2-Thioxo-1H-benzo[d]imidazole-1,3(2H)-diyl)bis(N′-(2-hydroxy-4-methoxybenzylidene)propanehydrazide)], the “effect on rat brain synaptosomes viability” value (rat brain synaptosomes) was “did not significantly reduce”.
